One test relates to Ramos. Kind of test: Cytotoxicity against human Ramos B cells. Type of test: functional, cell-based.
Another test concerns Jurkat. Kind of test: Cytotoxicity against human Jurkat T cells. Format: functional, cell-based.
Test [1] can be described thus: Selectivity for Jurkat T cells over Ramos B cells. Type of test: functional.

Each structure is given as a SMILES string. Where only a bound is given, the exact number is not on record here.

Turning to `CN1C(=O)C(Cc2ccc(-c3ccc(Cl)cc3)cc2)NC(=O)c2cc(Cl)ccc21` (stereo not drawn), the EC50 with Ramos and with Jurkat was 6.5 µM each time. The “Ratio EC50” value in test [1] is on record as 1.
As for `CN1C(=O)C(Cc2ccc(-c3cccnc3)cc2)NC(=O)c2cc(Cl)ccc21` (stereo not drawn), the EC50 in the test on Ramos came to 6 µM; in the test with Jurkat, 0.6 µM. Also, the “Ratio EC50” value in test [1] is given as 10.
Turning to `CN1C(=O)C(Cc2ccccc2)NC(=O)c2cc(Cl)ccc21` (stereo not drawn), the EC50 in the test with Ramos was above 100 µM; in the test on Jurkat, above 80 µM.
With `CN1C(=O)C(Cc2ccc(-c3cccc(Cl)c3)cc2)NC(=O)c2cc(Cl)ccc21` (stereo not drawn), the EC50 came to 1.5 µM in the test on Ramos and 2 µM in the test on Jurkat. In test [1], the “Ratio EC50” value is 0.8.
The corresponding values for `CN1C(=O)C(Cc2ccc(-c3ccc(Br)cc3)cc2)NC(=O)c2cc(Cl)ccc21` (stereo not drawn) are above 20 µM, 9.8 µM and above 2.
For the compound `CN1C(=O)C(Cc2ccc(C(C)(C)C)cc2)NC(=O)c2cc(Cl)ccc21` (stereo not drawn), the EC50 was determined as 16.2 µM in the test on Ramos and 8.2 µM in the test on Jurkat.
Turning to `CN1C(=O)C(Cc2ccc(-c3ccncc3)cc2)NC(=O)c2cc(Cl)ccc21` (stereo not drawn), the results for the EC50 with Ramos and in the test on Jurkat were 3 µM and 0.5 µM, respectively. Besides, the “Ratio EC50” value in test [1] is 6.
Consider `Cc1ccccc1-c1ccc(CC2NC(=O)c3cc(Cl)ccc3N(C)C2=O)cc1` (stereo not drawn), for which the EC50 in the test with Ramos turned out to be 6.7 µM; in the test with Jurkat it was 5.4 µM. In addition, the “Ratio EC50” value in test [1] came to 1.2.
With `CN1C(=O)C(Cc2ccc(-c3cccc(C(=O)O)c3)cc2)NC(=O)c2cc(Cl)ccc21` (stereo not drawn), the EC50 in the test with Ramos and with Jurkat was above 20 µM in each case.
Consider `CN1C(=O)C(Cc2c[nH]c3ccccc23)NC(=O)c2cc(Cl)ccc21` (stereo not drawn), for which the EC50 worked out at 9.2 µM with Ramos and 26.2 µM in the test with Jurkat.
For `Cc1cccc(-c2ccc(CC3NC(=O)c4cc(Cl)ccc4N(C)C3=O)cc2)c1` (stereo not drawn), the figures for the EC50 in the test with Ramos and with Jurkat were 2.8 µM and 3.1 µM, respectively. Moreover, in test [1], the “Ratio EC50” value was found to be 0.9.
For `CN1C(=O)C(Cc2ccc3ccccc3c2)NC(=O)c2cc(Cl)ccc21` (stereo not drawn), the results for the concentration giving a half-maximal response (EC50) with Ramos and in the test on Jurkat were 10.7 µM and 3 µM, respectively.
`Cc1ccc(-c2ccc(CC3NC(=O)c4cc(Cl)ccc4N(C)C3=O)cc2)cc1` (stereo not drawn): the figures for the half-maximal effective concentration (EC50) with Ramos and in the test with Jurkat were 6.9 µM and 3.6 µM, respectively. Moreover, the “Ratio EC50” value in test [1] is recorded as 1.9.
Consider `CN1C(=O)C(Cc2ccccc2Cc2ccccc2)NC(=O)c2cc(Cl)ccc21` (stereo not drawn), for which the EC50 is 18.6 µM with Ramos and 17.6 µM with Jurkat.
Turning to `CN1C(=O)C(Cc2ccc(-c3ccccc3[N+](=O)[O-])cc2)NC(=O)c2cc(Cl)ccc21` (stereo not drawn), the EC50 with Ramos and in the test on Jurkat was above 20 µM in each case.
Regarding `CN1C(=O)C(Cc2ccc(-c3ccc(O)cc3)cc2)NC(=O)c2cc(Cl)ccc21` (stereo not drawn), the EC50 in the test with Ramos is 6 µM; in the test with Jurkat, 1.5 µM. In test [1], the “Ratio EC50” value came to 4.
In the case of `CN1C(=O)C(Cc2ccc(-c3cccc(C(F)(F)F)c3)cc2)NC(=O)c2cc(Cl)ccc21` (stereo not drawn), the EC50 was 4 µM with Ramos and 4.5 µM with Jurkat. Besides, the “Ratio EC50” value in test [1] worked out at 0.9.
`CN1C(=O)C(Cc2ccc(-c3ccc(C(=O)O)cc3)cc2)NC(=O)c2cc(Cl)ccc21` (stereo not drawn): the EC50 in the test on Ramos amounted to 31.8 µM; in the test with Jurkat, 15.1 µM. For the same compound, the “Ratio EC50” value in test [1] is recorded as 2.1.
`CN1C(=O)C(Cc2ccc(-c3ccc(C(F)(F)F)cc3)cc2)NC(=O)c2cc(Cl)ccc21` (stereo not drawn): the EC50 with Ramos was determined as 4.8 µM; in the test with Jurkat it was 5.2 µM. For the same compound, the “Ratio EC50” value in test [1] worked out at 0.9.
Turning to `CN1C(=O)C(CCc2ccccc2)NC(=O)c2cc(Cl)ccc21` (stereo not drawn), the EC50 is above 100 µM with Ramos and above 80 µM in the test with Jurkat.
Consider `CN1C(=O)C(Cc2ccc(-c3cccc(Br)c3)cc2)NC(=O)c2cc(Cl)ccc21` (stereo not drawn), for which the EC50 was found to be 9.2 µM with Ramos and 4.8 µM in the test on Jurkat. The “Ratio EC50” value in test [1] worked out at 1.9.
On to `CN1C(=O)C(Cc2ccc(-c3ccccc3)cc2)NC(=O)c2cc(Cl)ccc21` (stereo not drawn), for which the EC50 is 6.2 µM with Ramos and 2.3 µM with Jurkat.
As to `CN1C(=O)C(Cc2ccc(-c3cccc([N+](=O)[O-])c3)cc2)NC(=O)c2cc(Cl)ccc21` (stereo not drawn), the EC50 was found to be 4.2 µM with Ramos and 1.5 µM in the test with Jurkat. Besides, the “Ratio EC50” value in test [1] turned out to be 2.8.
As for `CN1C(=O)C(Cc2cccc(-c3ccccc3)c2)NC(=O)c2cc(Cl)ccc21` (stereo not drawn), the EC50 was 19.1 µM with Ramos and 5.4 µM with Jurkat.
On to `CN1C(=O)C(Cc2ccc(-c3ccccc3Cl)cc2)NC(=O)c2cc(Cl)ccc21` (stereo not drawn), for which the EC50 with Ramos was found to be 10.3 µM; in the test on Jurkat, 8.3 µM. Moreover, the “Ratio EC50” value in test [1] came out at 1.2.
Turning to `CN1C(=O)C(Cc2cccc3ccccc23)NC(=O)c2cc(Cl)ccc21` (stereo not drawn), the EC50 with Ramos came out at 12.6 µM; with Jurkat, 20.5 µM.
As to `CN1C(=O)C(Cc2ccc(-c3ccoc3)cc2)NC(=O)c2cc(Cl)ccc21` (stereo not drawn), the figures for the EC50 with Ramos and in the test on Jurkat were 2 µM and 0.3 µM, respectively. Besides, the “Ratio EC50” value in test [1] was 6.5.
Consider `CN1C(=O)C(Cc2ccc(/C=C/c3ccccc3)cc2)NC(=O)c2cc(Cl)ccc21` (stereo not drawn), for which the results for the EC50 with Ramos and in the test with Jurkat were 50.3 µM and 7.5 µM, respectively.
As for `CN1C(=O)C(Cc2ccc(-c3ccc([N+](=O)[O-])cc3)cc2)NC(=O)c2cc(Cl)ccc21` (stereo not drawn), the values for the EC50 in the test with Ramos and in the test with Jurkat were 10 µM and 3.8 µM, respectively. In test [1], the “Ratio EC50” value amounted to 2.6.
As to `CN1C(=O)C(Cc2ccc(-c3cccc(O)c3)cc2)NC(=O)c2cc(Cl)ccc21` (stereo not drawn), the EC50 with Ramos was 4 µM; in the test with Jurkat, 1.5 µM. Moreover, in test [1], the “Ratio EC50” value is 2.7.

In general, EC50 refers to the concentration giving half of the maximal effect.

The values are drawn from ChEMBL document CHEMBL1146975, “Identification of cytotoxic, T-cell-selective 1,4-benzodiazepine-2,5-diones” (Bioorg Med Chem Lett, 2006).
